In patent publication US10065928B2, “Quinolinone compound and use thereof” (Sunshine Lake Pharma Co., Ltd., priority 2014, dated 2018) one finds EC50 data, which are given here for 25 molecules.

As a reminder, the EC50 is the concentration that produces a half-maximal response. High values mean a need for much substance, low ones an effect from little substance.

The subject of this assay is erythropoietin (EPO) production in Hep3B cells. Briefly: Activity in inducing erythropoietin (EPO) production in vitro, Hep3B cells, EPO ELISA. It is filed as cell-based. Conditions: Homo sapiens, 24 h, EPO in supernatant by ELISA. On the procedure: The activities of compounds of the invention in inducing erythropoietin (EPO) production were assessed by using human live cancer cell strain Hep3B (ATCC: American type culture collection, Manassas, Va.). Hep3B cells seeded in a 96-well plate with a density of 2.5×10^4 cells/well were cultivated overnight in DMEM culture medium (Dulbecco's Modified Eagle's Medium) at 37° C. in the presence of 10% fetal bovine serum (FBS). The next day, the supernatant liquid of culture medium was abandoned by suction, and to the residue was added fresh DMEM (containing 0.5% DMSO, 0.5% FBS) containing compound of the invention with a series of concentrations (0.31160.00 μM) or containing solvent used for comparison. The cells were cultivated at 37° C. for 24 h. The supernatant liquid was collected and the EPO concentration of the supernatant was quantified by using human EPO ELISA kit (Abcam). The activity of each compound in inducing erythropoietin (EPO) production was represented by half maximal effective concentration (EC50).
On the technique in general: In an ELISA, binding on a coated surface is turned into a signal by an enzyme label.
In turn, `Cn1c(=O)c(C(=O)NCC(=O)O)c(O)c2cc(Oc3ccccc3)ccc21` [Example 5, 2-(4-hydroxy-1-methyl-2-oxo-6-phenoxy-1,2-dihydroquinoline-3-carboxamido)acetic acid] had an EC50 of 4 µM.
As for `Cn1c(=O)c(C(=O)NCC(=O)O)c(O)c2cc(S(=O)(=O)n3ccc4ccccc43)ccc21` [Example 7, 2-(6-((1H-indol-1-yl)sulfonyl)-4-hydroxy-1-methyl-2-oxo-1,2-dihydroquinoline-3-carboxamido)acetic acid], the EC50 worked out at 6.83 µM.
The molecule `Cn1c(=O)c(C(=O)NCC(=O)O)c(O)c2ccc(Oc3ccc4ccccc4c3)cc21` [Example 8, 2-(4-hydroxy-1-methyl-7-(naphthalen-2-yloxy)-2-oxo-1,2-dihydroquinoline-3-carboxamido)acetic acid] yielded an EC50 of 1.63 µM.
`Cn1c(=O)c(C(=O)NCC(=O)O)c(O)c2cc(Oc3ccc4ccccc4c3)ccc21` [Example 9, 2-(4-hydroxy-1-methyl-6-(naphthalen-2-yloxy)-2-oxo-1,2-dihydroquinoline-3-carboxamido)acetic acid] gave an EC50 of 2.52 µM.
Take `CN(C(=O)c1ccc2c(c1)c(O)c(C(=O)NCC(=O)O)c(=O)n2C)C(c1ccccc1)c1ccccc1` [Example 11, 2-(6-(benzhydryl(methyl)carbamoyl)-4-hydroxy-1-methyl-2-oxo-1,2-dihydroquinoline-3-carboxamido)acetic acid]: the EC50 is 10.2 µM.
To `Cn1c(=O)c(C(=O)NCC(=O)O)c(O)c2ccc(Oc3cccc(Cl)c3)cc21` [Example 12, 2-(7-(3-chlorophenoxy)-4-hydroxy-1-methyl-2-oxo-1,2-dihydroquinoline-3-carboxamido)acetic acid] belongs 4.24 µM; to `Cn1c(=O)c(C(=O)NCC(=O)O)c(O)c2ccc(Oc3cccc(F)c3F)cc21` [Example 14, 2-(7-(2,3-difluorophenoxy)-4-hydroxy-1-methyl-2-oxo-1,2-dihydroquinoline-3-carboxamido)acetic acid], 10.2 µM.
`Cn1c(=O)c(C(=O)NCC(=O)O)c(O)c2ccc(Oc3ccc(F)cc3F)cc21` [Example 15, 2-(7-(2,4-difluorophenoxy)-4-hydroxy-1-methyl-2-oxo-1,2-dihydroquinoline-3-carboxamido)acetic acid] came in with an EC50 of 6.92 µM.
The molecule `Cn1c(=O)c(C(=O)NCC(=O)O)c(O)c2ccc(Oc3c(F)cccc3F)cc21` [Example 16, 2-(7-(2,6-difluorophenoxy)-4-hydroxy-1-methyl-2-oxo-1,2-dihydroquinoline-3-carboxamido)acetic acid] yielded an EC50 of 8.83 µM.
In turn, `Cn1c(=O)c(C(=O)NCC(=O)O)c(O)c2ccc(Oc3ccc(F)c(F)c3)cc21` [Example 17, 2-(7-(3,4-difluorophenoxy)-4-hydroxy-1-methyl-2-oxo-1,2-dihydroquinoline-3-carboxamido)acetic acid] came in with a 50% effective concentration (EC50) of 3.16 µM.
In the case of `Cn1c(=O)c(C(=O)NCC(=O)O)c(O)c2ccc(Oc3cc(F)cc(F)c3)cc21` [Example 18, 2-(7-(3,5-difluorophenoxy)-4-hydroxy-1-methyl-2-oxo-1,2-dihydroquinoline-3-carboxamido)acetic acid], the EC50 stood at 6.28 µM.
`Cn1c(=O)c(C(=O)NCC(=O)O)c(O)c2ccc(Oc3cccc(Cl)c3F)cc21` [Example 20, 2-(7-(3-chloro-2-fluorophenoxy)-4-hydroxy-1-methyl-2-oxo-1,2-dihydroquinoline-3-carboxamido)acetic acid] returned an EC50 of 3.75 µM.
`Cn1c(=O)c(C(=O)NCC(=O)O)c(O)c2ccc(Oc3ccc(Cl)cc3F)cc21` [Example 21, 2-(7-(4-chloro-2-fluorophenoxy)-4-hydroxy-1-methyl-2-oxo-1,2-dihydroquinoline-3-carboxamido)acetic acid] returned an EC50 of 5.75 µM.
With `Cn1c(=O)c(C(=O)NCC(=O)O)c(O)c2ccc(Oc3c(F)cccc3Cl)cc21` [Example 23, 2-(7-(2-chloro-6-fluorophenoxy)-4-hydroxy-1-methyl-2-oxo-1,2-dihydroquinoline-3-carboxamido)acetic acid], the midpoint of the response, the EC50, lay at 9.23 µM.
The molecule `Cn1c(=O)c(C(=O)NCC(=O)O)c(O)c2ccc(Oc3cccc(F)c3Cl)cc21` [Example 24, 2-(7-(2-chloro-3-fluorophenoxy)-4-hydroxy-1-methyl-2-oxo-1,2-dihydroquinoline-3-carboxamido)acetic acid] yielded an EC50 of 9.53 µM.
For `Cn1c(=O)c(C(=O)NCC(=O)O)c(O)c2ccc(Oc3ccc(Cl)c(F)c3)cc21` [Example 25, 2-(7-(4-chloro-3-fluorophenoxy)-4-hydroxy-1-methyl-2-oxo-1,2-dihydroquinoline-3-carboxamido)acetic acid], the response was half-maximal at 10.2 µM (EC50).
To `Cn1c(=O)c(C(=O)NCC(=O)O)c(O)c2ccc(Oc3cc(F)cc(Cl)c3)cc21` [Example 26, 2-(7-(3-chloro-5-fluorophenoxy)-4-hydroxy-1-methyl-2-oxo-1,2-dihydroquinoline-3-carboxamido)acetic acid] belongs 13.5 µM.
For `Cn1c(=O)c(C(=O)NCC(=O)O)c(O)c2ccc(Oc3cc(F)ccc3Cl)cc21` [Example 27, 2-(7-(2-chloro-5-fluorophenoxy)-4-hydroxy-1-methyl-2-oxo-1,2-dihydroquinoline-3-carboxamido)acetic acid] the value was 6.85 µM; for `Cn1c(=O)c(C(=O)NCC(=O)O)c(O)c2ccc(Oc3ccc(F)c(Cl)c3)cc21` [Example 29, 2-(7-(3-chloro-4-fluorophenoxy)-4-hydroxy-1-methyl-2-oxo-1,2-dihydroquinoline-3-carboxamido)acetic acid], 10.2 µM.
To `Cn1c(=O)c(C(=O)NCC(=O)O)c(O)c2ccc(Oc3cccc(Cl)c3Cl)cc21` [Example 30, 2-(7-(2,3-dichlorophenoxy)-4-hydroxy-1-methyl-2-oxo-1,2-dihydroquinoline-3-carboxamido)acetic acid] belongs 1.97 µM.
Molecule `Cn1c(=O)c(C(=O)NCC(=O)O)c(O)c2ccc(Oc3ccc(Cl)cc3Cl)cc21` [Example 31, 2-(7-(2,4-dichlorophenoxy)-4-hydroxy-1-methyl-2-oxo-1,2-dihydroquinoline-3-carboxamido)acetic acid] came in with an EC50 of 4.15 µM.
To `Cn1c(=O)c(C(=O)NCC(=O)O)c(O)c2ccc(Oc3c(Cl)cccc3Cl)cc21` [Example 32, 2-(7-(2,6-dichlorophenoxy)-4-hydroxy-1-methyl-2-oxo-1,2-dihydroquinoline-3-carboxamido)acetic acid] belongs 3.63 µM; to `Cn1c(=O)c(C(=O)NCC(=O)O)c(O)c2ccc(Oc3ccc(Cl)c(Cl)c3)cc21` [Example 33, 2-(7-(3,4-dichlorophenoxy)-4-hydroxy-1-methyl-2-oxo-1,2-dihydroquinoline-3-carboxamido)acetic acid], 2.56 µM; to `Cn1c(=O)c(C(=O)NCC(=O)O)c(O)c2ccc(Oc3cc(Cl)cc(Cl)c3)cc21` [Example 34, 2-(7-(3,5-dichlorophenoxy)-4-hydroxy-1-methyl-2-oxo-1,2-dihydroquinoline-3-carboxamido)acetic acid], 20.2 µM.
Molecule `Cn1c(=O)c(C(=O)NCC(=O)O)c(O)c2ccc(Oc3cc(Cl)ccc3Cl)cc21` [Example 35, 2-(7-(2,5-dichlorophenoxy)-4-hydroxy-1-methyl-2-oxo-1,2-dihydroquinoline-3-carboxamido)acetic acid] displayed an EC50 of 2.25 µM.
